Experimental findings from US11566260B2, “Potentiating agents for protecting plants from fungal infections” (UNIVERSITE D'ANGERS, priority 2012, dated 2023) are described below.

Common to all, as to type: cell-based
Test [1] has as its system Alternaria brassicicola. Briefly: Test B: potentiating effect with a plant defense molecule on growth of Alternaria brassicicola. The settings on record: Alternaria brassicicola. The protocol:
(§1) Test B: • 1) Determining a non-fungicidal amount of said agent, preferably according to Test A; • 2) Determining a non-fungicidal amount of a plant defense molecule, preferably according to Test A; • 3) Measuring growth of fungal conidia in a medium comprising a combination of a non-fungicidal amount of the agent, as determined in step 1, and a non-fungicidal amount of the plant defense molecule, as determined in step 2. In one embodiment, the growth is measured as follows: Suspensions of fungal conidia (starting material: 10^5 conidia/mL) are cultured in liquid medium, such as, for example, 300 μL of PBD medium, on microplate wells at 25° C. with shaking at 175 rpm for 5 minutes every 10 minutes. Non-fungicidal concentrations of the tested agent and of the tested plant defense molecule are added on wells, and fungal growth is measured during at least 5 hours, preferably at least 10, 20, 30 hours. Methods for measuring fungal growth are well known from the skilled artisan. Examples of such methods include, but are not limited to, photometry, such as, for example, spectrophotometric methods; or nephelometry, such as, for example, laser nephelometry as described in Joubert et al (Biotechniques, 2010, 48:399-404). Growth inhibition is measured by comparing the Area Under Curves (AUC) of treated samples and of untreated controls.
The potentiating effect of chelerythrin is measured in a suspension of conidia treated with a plant defense molecule, camalexin, which is present at a non-fungicidal amount as determined hereinabove. Said non-fungicidal amount is consistent with the amount of camalexin produced by an infected plant organ.
Alternaria brassicicola growth was measured as described hereinabove.
A non-fungicidal amount of chelerythrin (as determined in Example 1a) and/or a non-fungicidal amount of camalexin (as determined in Example 1b) or 10 μL of DMSO are added per well, and growth curves were drawn (FIG. 3).
In the Table 5 below are shown compounds (column 1) having a potentiating effect of a plant defense molecule (column 2) for the inhibition of a pathogenic fungus (column 3). The type of the potentiating agent in this particular situation is given in column 4 (homologous or heterologous). Triads were identified according to Test B.

The subject of test [2] is Alternaria dauci. Kind of test: Test B: potentiating effect with a plant defense molecule on growth of Alternaria dauci. The settings on record: plant defense molecule 6-methoxymellein. As for the experimental part: as §1, with “Examples of such methods include, but are not limited to, photometry, such as, for example, spectrophotometric methods; or nephelometry, such as, for example, laser nephelometry as described in Joubert et al (Biotechniques, 2010, 48:399-404).” left out, “controls. […]” for “controls.”
Following the aforementioned growth inhibition protocol, the following treatments are assessed: • 6-methoxymellein 125 μM, • 6-methoxymellein 100 μM, • 6-methoxymellein 125 μM and M. cordata extract (10 μM of Sanguinarine), • 6-methoxymellein 100 μM and M. cordata extract (10 μM of Sanguinarine).

The test system of a further test is Botrytis cinerea. Briefly: Test B: potentiating effect with a plant defense molecule on Botrytis cinerea. As for the experimental part:
as §1, with “controls. […]” for “controls.”

Test [3] deals with Alternaria dauci. Kind of test: Growth inhibition of Alternaria dauci (protocol of Example 1), non-fungicidal amount. As for the experimental part: Suspensions of fungal conidia (starting material being for example 10^5 conidia/mL) are cultured in liquid medium, such as, for example, 300 μL of PBD medium, on microplate wells at 25° C. with shaking at 175 rpm for 5 minutes every 10 minutes. Increasing concentrations of the tested product are added on wells, and fungal growth is measured, during at least 5 hours, preferably at least 10, 20, 30 hours. Methods for measuring fungal growth are well known from the skilled artisan. […] Growth inhibition is measured by comparing the Area Under Curves (AUC) of treated samples and of untreated controls. […]
(§2) For inoculum preparation, conidia were collected from 8-days-old solid cultures by adding PD broth followed by gentle scraping of the agar plates. They were counted in a Thoma's chamber and the conidial suspensions were diluted to the concentration of 10^5 conidia/mL.
Growth was automatically recorded for at least 30 hours at 25° C. using a nephelometric reader (NEPHELOstar Galaxy, BMG Labtech, Germany) equipped with a 635-nm laser as radiation source. […] Each well was measured for 0.1 second with a laser beam of 2.5 mm.
The non-fungicidal amount of the sanguinarine contained in M. cordata extract against A. dauci strain was determined as 12 μM or 4 ppm according to the protocol described in Example 1. […]

Test [4] has as its system Alternaria brassicicola. Kind of test: Test A: growth of Alternaria brassicicola conidia followed by nephelometry, to find the non-fungicidal amount. As for the experimental part:
Suspensions of fungal conidia (starting material being for example 10^5 conidia/mL) are cultured in liquid medium, such as, for example, 300 μL of PBD medium, on microplate wells at 25° C. with shaking at 175 rpm for 5 minutes every 10 minutes. Increasing concentrations of the tested product are added on wells, and fungal growth is measured, during at least 5 hours, preferably at least 10, 20, 30 hours. Methods for measuring fungal growth are well known from the skilled artisan. Examples of such methods include, but are not limited to, photometry, such as, for example, spectrophotometric methods; or nephelometry, such as, for example, laser nephelometry as described in Joubert et al (Biotechniques, 2010, 48:399-404). Growth inhibition is measured by comparing the Area Under Curves (AUC) of treated samples and of untreated controls. Test A is carried out in Example 1.
Alternaria brassicicola strains were cultivated at 24° C. on potato dextrose (PD) medium (Cat. No. 213200; Becton Dickinson, USA).
as §2
Growth was automatically recorded for at least 30 hours at 25° C. using a nephelometric reader (NEPHELOstar Galaxy, BMG Labtech, Germany) equipped with a 635-nm laser as radiation source. During incubation, the 96-well plates were subjected to shaking at 175 rpm for 5 minutes every 10 minutes. Measurements were done every hour with a gain value of 90 and a percentage of the maximum value of 20%. Each well was measured for 0.1 second with a laser beam of 2.5 mm.
Chelerythrin (25 μM or 50 μM, test wells) or 10 μL of DMSO (chelerythrin solvent, control wells) were added on wells, and growth curves were drawn (FIG. 1).
Camalexin (10, 20, 40 or 60 μM, test wells) or 10 μL of DMSO (chelerythrin solvent, control wells) were added on wells, and growth curves were drawn (FIG. 2).

The mark [5] stands for this setting: plant defense molecule Brassinin.
[6] abbreviates: plant defense molecule Camalexin.
[7] abbreviates: plant defense molecule Resveratrol.

As to `c1c2c(cc3c1OCO3)-c1cc3ccc4c(c3c[n+]1CC2)OCO4` [Coptisin], the “Type of potentiating agent (compound having a potentiating effect of the plant defense molecule)” value (“Type of potentiating agent” below) with Alternaria brassicicola [1] (setting [5]) and in the test on Alternaria brassicicola [1] (setting [6]) was “Homologous” in each case.
In the case of `CCOc1cc2c3cc(OC)c(OC)cc3c[n+](C)c2c2cc(OC)c(OC)cc12` [Compound 2], the “Type of potentiating agent” value with Alternaria dauci [2], in the test on Botrytis cinerea (setting [5]), with Botrytis cinerea (setting [6]) and in the test on Alternaria brassicicola [1] (setting [5]) was “Homologous” each time.
`COc1cc2c(OC)cc3c4cc(OC)c(OC)cc4c(=O)n(C)c3c2cc1OC` [Compound 5]: the “Type of potentiating agent” value is “Homologous” with Alternaria brassicicola [1] (setting [5]) and “Heterologous” in the test with Alternaria brassicicola [1] (setting [7]).
Take `COc1cc(O)c2c(c1)C[C@@H](C)OC2=O` [6-methoxymellein]: the “growth inhibition of Alternaria dauci” value with Alternaria dauci [3] (6-methoxymellein 100 μM) and in the test on Alternaria dauci [3] (6-methoxymellein 125 μM) was “did not inhibit” in each case.
For `CCOc1cc2c(OCC)cc3c4cc(OC)c(OC)cc4cnc3c2cc1OC` [Compound 3], the “Type of potentiating agent” value in the test on Alternaria brassicicola [1] (setting [7]) is “Heterologous”.
For `CCOc1cc2c3cc(OC)c(OC)cc3cnc2c2cc(OC)c(OC)cc12` [Compound 1], the “Type of potentiating agent” value with Alternaria brassicicola [1] (setting [7]) is given as “Heterologous”.
As for `c1ccc2c(-c3nccs3)c[nH]c2c1` [camalexin, reference compound], the “inhibition of Alternaria brassicicola growth” value in the test with Alternaria brassicicola [4] (10 μM camalexin) and in the test on Alternaria brassicicola [4] (20 μM camalexin) was ≤ 20% throughout.
Take `COc1cc2c[n+](C)c3c4cc(OC)c(OC)cc4c(OCc4ccccc4)cc3c2cc1OC` [Compound 4]: the “Type of potentiating agent” value in the test on Alternaria brassicicola [1] (setting [5]) was “Homologous”; in the test with Alternaria brassicicola [1] (setting [7]) it was “Heterologous”.
